Measurements from US7579356B2, “Thia-tetraazaacenaphthylene kinase inhibitors” (Janssen Pharmaceutica NV, priority 2005, dated 2009).

Experiments:
Lyn kinase (human) = target: T1, Lyn kinase (human) (Homo sapiens, UniProt P07948); experiment: Lyn Kinase Assay; type: biochemical; settings: test concentration of 2 μM; for % Inhibition (Lyn): 2 µM
T1 construct: purchased Upstate Biotechnology, Lake Placid, N.Y
Summary of the method: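 Radiometric filter-binding assay with recombinant human Lyn, poly(Glu,Tyr) substrate (0.1 mg/mL final), 5 μM ATP plus γ-33P-ATP in MOPS pH 7.5/Mg acetate buffer; 40 min at 30 °C, stopped with phosphoric acid, counted by scintillation. Reported as percent inhibition at 2 μM, with IC50 (μM) where determined.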

HER-2 = target: T2, HER-2 (Homo sapiens, UniProt P04626); experiment: HER-2 Kinase Assay; type: biochemical; settings: for inhibition at 1 µM: test concentration of 1 μM; for IC50: value in parentheses
T2 construct: His6 with thrombin site (N); purchased Proqinase (Freiburg, Germany)
Summary of the method: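 Read-out was scintillation counting of 33P incorporated into biotinylated polyGluTyr captured on streptavidin plates. Reactions ran 1 h at 30 °C with GST-fused HER-2 residues 679–1255, 1 μM ATP, Mn2+ and Mg2+ at pH 7.5; data given as percent inhibition at 1 μM, with IC50 where determined.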

A375 malignant melanoma = experiment: Cell Proliferation Inhibition Assay, A375 (14C-thymidine); type: cell-based; settings: Homo sapiens, A-375
Description: Cell Proliferation Inhibition Assay
The ability of a test compound to inhibit unregulated cell proliferation may be determined by measuring incorporation of ^14C-labelled thymidine into newly synthesized DNA within cell lines derived from carcinomas originating from several tissues. Accordingly, the effect of a test compound on proliferation of cells with a variety of phenotypes may be determined.
Carcinoma cell lines used include the HeLa cervical adenocarcinoma from the American Type Culture Collection (ATCC Cat. #CCL2), A375 malignant melanoma (ATCC Cat. #CRL-1619), HCT-116 colon carcinoma (ATCC Cat. #CCL-247), SKBR3 breast carcinoma (ATCC Cat. #HTB-30) and BT474 breast carcinoma (ATCC Cat. #HTB-20).
The carcinoma cells were trypsinized and counted. The cells (3000-8000 count) were added to each well of a 96-well CytoStar tissue culture treated scintillating microplate (Amersham #RPNQ0160) in complete medium (100 μL) and the plate was then incubated in complete medium for 24 hrs at 37° C. in an inert atmosphere containing 5% CO2.
Test compound (1 μL) in 100% DMSO was added to the plate test-wells with DMSO only added to control-wells. The plate was incubated in complete medium for a second 24 hr period at 37° C. in an atmosphere containing 5% CO2.
An aliquot of a solution of Methyl ^14C-thymidine (56 mC/mmol) (NEN #NEC568 or AMersham #CFA532) and complete medium (20 uL to provide 0.2 μCl/well) was then added to each well and the plate was incubated for a third 24 hr period at 37° C. in an atmosphere containing 5% CO2.
The plate contents were then discarded, the plate washed twice with PBS (200 μL) and then PBS (200 μL) was added to each well. The plate was sealed and the degree of methyl ^14C-thymidine incorporation was quantified on a Packard Top Count.
Cell proliferation of the Hela cell line was measured using the ATP-Lite method as described in the ATP Lite Kit (Perkin-Elmer Kit Number 6106941) or the C^14 method as described above. Cell proliferation of the other cell lines was measured using the C^14 method.

T1 sequence (P07948 whole entry): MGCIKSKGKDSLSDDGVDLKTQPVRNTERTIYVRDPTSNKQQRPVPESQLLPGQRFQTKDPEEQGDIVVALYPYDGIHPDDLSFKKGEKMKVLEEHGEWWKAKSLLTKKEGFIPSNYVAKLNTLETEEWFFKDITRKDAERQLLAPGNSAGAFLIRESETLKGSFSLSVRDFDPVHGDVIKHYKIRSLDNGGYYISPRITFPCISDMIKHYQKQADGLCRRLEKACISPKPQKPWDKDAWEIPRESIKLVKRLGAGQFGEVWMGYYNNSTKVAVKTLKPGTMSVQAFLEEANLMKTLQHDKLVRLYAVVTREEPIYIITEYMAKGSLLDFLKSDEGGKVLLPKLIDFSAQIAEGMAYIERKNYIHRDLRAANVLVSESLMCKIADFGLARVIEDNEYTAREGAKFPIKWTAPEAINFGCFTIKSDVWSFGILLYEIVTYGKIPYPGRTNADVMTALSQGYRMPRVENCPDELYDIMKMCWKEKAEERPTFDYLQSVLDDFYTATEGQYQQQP
T2 sequence (P04626 679-1255): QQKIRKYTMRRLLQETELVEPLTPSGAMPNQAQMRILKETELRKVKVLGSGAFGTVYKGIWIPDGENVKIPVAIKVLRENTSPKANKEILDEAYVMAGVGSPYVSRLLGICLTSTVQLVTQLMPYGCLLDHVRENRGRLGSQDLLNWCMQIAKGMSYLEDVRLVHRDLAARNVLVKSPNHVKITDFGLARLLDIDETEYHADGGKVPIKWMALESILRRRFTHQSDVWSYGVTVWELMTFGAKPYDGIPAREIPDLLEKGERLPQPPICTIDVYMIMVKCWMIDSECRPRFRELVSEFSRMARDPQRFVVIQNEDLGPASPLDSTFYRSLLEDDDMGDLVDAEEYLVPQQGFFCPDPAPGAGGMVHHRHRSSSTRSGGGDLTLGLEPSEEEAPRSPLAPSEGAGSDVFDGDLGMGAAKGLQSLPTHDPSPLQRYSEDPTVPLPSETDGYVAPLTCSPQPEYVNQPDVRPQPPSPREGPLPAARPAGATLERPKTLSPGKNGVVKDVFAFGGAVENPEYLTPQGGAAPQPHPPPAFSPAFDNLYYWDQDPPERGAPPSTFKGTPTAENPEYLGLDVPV

inhibition at 2 µM (Lyn kinase (human)) [%]	inhibition at 1 µM (HER-2) [%]	IC50 (A375 malignant melanoma) [µM]	IC50 (HER-2) [nM]	% Inhibition (Lyn) (Lyn kinase (human)) [%]	SMILES
-16	-7	100	–	–	O=C(O)c1sc2ncnc3c2c1NC(=O)N3c1ccc(OCc2ccccn2)c(Cl)c1 [Cpd 38, 5-[3-chloro-4-(pyridin-2-ylmethoxy)-phenyl]-4-oxo-4,5-dihydro-3H-1-thia-3,5,6,8-tetraaza-acenaphthylene-2-carboxylic acid]
14	45	17.2	–	–	COc1ccc(NC(=O)c2sc3ncnc4c3c2NC(=O)N4c2ccc(OCc3ccccn3)c(Cl)c2)cc1OC [Cpd 48, 5-[3-chloro-4-(pyridin-2-ylmethoxy)-phenyl]-4-oxo-4,5-dihydro-3H-1-thia-3,5,6,8-tetraaza-acenaphthylene-2-carboxylic acid (3,4-dimethoxy-phenyl)-amide]
16.2	95	100	246	–	O=C(Nc1ccc(CN2CCOCC2)cc1)c1sc2ncnc3c2c1NC(=O)N3c1ccc(OCc2ccccn2)c(Cl)c1 [Cpd 52, 5-[3-chloro-4-(pyridin-2-ylmethoxy)-phenyl]-4-oxo-4,5-dihydro-3H-1-thia-3,5,6,8-tetraaza-acenaphthylene-2-carboxylic acid (4-morpholin-4-ylmethyl-phenyl)-amide]
–	–	100	1370	–	O=C(O)c1sc2ncnc3c2c1NC(=O)N3c1ccc2c(ccn2Cc2cccc(F)c2)c1 [Cpd 77, 5-[1-(3-fluoro-benzyl)-1H-indol-5-yl]-4-oxo-4,5-dihydro-3H-1-thia-3,5,6,8-tetraaza-acenaphthylene-2-carboxylic acid]
–	–	100	> 100000	–	CCOC(=O)c1sc2ncnc3c2c1NC(=O)N3c1ccc2c(cnn2Cc2cccc(F)c2)c1 [Cpd 78, 5-[1-(3-fluoro-benzyl)-1H-indazol-5-yl]-4-oxo-4,5-dihydro-3H-1-thia-3,5,6,8-tetraaza-acenaphthylene-2-carboxylic acid ethyl ester]
–	–	100	> 10000	–	O=C(O)c1sc2ncnc3c2c1NC(=O)N3c1ccc2c(cnn2Cc2cccc(F)c2)c1 [Cpd 79, 5-[1-(3-fluoro-benzyl)-1H-indazol-5-yl]-4-oxo-4,5-dihydro-3H-1-thia-3,5,6,8-tetraaza-acenaphthylene-2-carboxylic acid]
–	–	10.1	121	–	O=C(Nc1ccc(CN2CCCCC2)cc1)c1sc2ncnc3c2c1NC(=O)N3c1ccc2c(cnn2Cc2cccc(F)c2)c1 [Cpd 80, 5-[1-(3-fluoro-benzyl)-1H-indazol-5-yl]-4-oxo-4,5-dihydro-3H-1-thia-3,5,6,8-tetraaza-acenaphthylene-2-carboxylic acid (4-piperidin-1-ylmethyl-phenyl)-amide]
–	–	6.79	150	–	O=C(Nc1ccc(CN2CCCCC2)cc1)c1sc2ncnc3c2c1NC(=O)N3c1ccc2c(ccn2Cc2cccc(F)c2)c1 [Cpd 87, 5-[1-(3-fluoro-benzyl)-1H-indol-5-yl]-4-oxo-4,5-dihydro-3H-1-thia-3,5,6,8-tetraaza-acenaphthylene-2-carboxylic acid (4-piperidin-1-ylmethyl-phenyl)-amide]
7	–	10	2180	–	CC(C)(C)OC(=O)N1CCC(NC(=O)c2sc3ncnc4c3c2NC(=O)N4c2ccc3c(ccn3Cc3cccc(F)c3)c2)CC1 [Cpd 91, 4-({5-[1-(3-fluoro-benzyl)-1H-indol-5-yl]-4-oxo-4,5-dihydro-3H-1-thia-3,5,6,8-tetraaza-acenaphthylene-2-carbonyl}-amino)-piperidine-1-carboxylic acid tert-butyl ester]
–	–	4.89	360	–	CN1CCC(NC(=O)c2sc3ncnc4c3c2NC(=O)N4c2ccc3c(ccn3Cc3cccc(F)c3)c2)CC1 [Cpd 92, 5-[1-(3-fluoro-benzyl)-1H-indol-5-yl]-4-oxo-4,5-dihydro-3H-1-thia-3,5,6,8-tetraaza-acenaphthylene-2-carboxylic acid (1-methyl-piperidin-4-yl)-amide]
16	–	10	779	–	O=C(NCCN1CCOCC1)c1sc2ncnc3c2c1NC(=O)N3c1ccc2c(ccn2Cc2cccc(F)c2)c1 [Cpd 93, 5-[1-(3-fluoro-benzyl)-1H-indol-5-yl]-4-oxo-4,5-dihydro-3H-1-thia-3,5,6,8-tetraaza-acenaphthylene-2-carboxylic acid (2-morpholin-4-yl-ethyl)-amide]
3	–	100	~10000	–	O=C(Nc1ccc(N2CCOCC2)cc1)c1sc2ncnc3c2c1NC(=O)N3c1ccc2c(ccn2Cc2cccc(F)c2)c1 [Cpd 94, 5-[1-(3-fluoro-benzyl)-1H-indol-5-yl]-4-oxo-4,5-dihydro-3H-1-thia-3,5,6,8-tetraaza-acenaphthylene-2-carboxylic acid (4-morpholin-4-yl-phenyl)-amide]
18	–	10	350	–	O=C(NCCCN1CCOCC1)c1sc2ncnc3c2c1NC(=O)N3c1ccc2c(ccn2Cc2cccc(F)c2)c1 [Cpd 95, 5-[1-(3-fluoro-benzyl)-1H-indol-5-yl]-4-oxo-4,5-dihydro-3H-1-thia-3,5,6,8-tetraaza-acenaphthylene-2-carboxylic acid (3-morpholin-4-yl-propyl)-amide]
3	–	100	> 100000	6	CCOC(=O)c1sc2ncnc3c2c1NC(=O)N3c1ccc(Oc2ccc(F)cc2)cc1 [Cpd 101, 5-[4-(4-fluoro-phenoxy)-phenyl]-4-oxo-4,5-dihydro-3H-1-thia-3,5,6,8-tetraaza-acenaphthylene-2-carboxylic acid ethyl ester]
8	–	100	> 100000	13	CCOC(=O)c1sc2ncnc3c2c1NC(=O)N3c1ccc(C)c(Br)c1 [Cpd 102, 5-(3-bromo-4-methyl-phenyl)-4-oxo-4,5-dihydro-3H-1-thia-3,5,6,8-tetraaza-acenaphthylene-2-carboxylic acid ethyl ester]
–	–	100	> 100000	–	CCOC(=O)c1sc2ncnc3c2c1NC(=O)N3c1cc(Br)ccc1C [Cpd 103, 5-(5-bromo-2-methyl-phenyl)-4-oxo-4,5-dihydro-3H-1-thia-3,5,6,8-tetraaza-acenaphthylene-2-carboxylic acid ethyl ester]
69	–	100	148	–	Cc1ccc(N2C(=O)Nc3c(C(=O)Nc4ccc(CN5CCOCC5)cc4)sc4ncnc2c34)cc1Br [Cpd 108, 5-(3-bromo-4-methyl-phenyl)-4-oxo-4,5-dihydro-3H-1-thia-3,5,6,8-tetraaza-acenaphthylene-2-carboxylic acid (4-morpholin-4-ylmethyl-phenyl)-amide]
75	–	10	684	–	Cc1ccc(Br)cc1N1C(=O)Nc2c(C(=O)Nc3ccc(CN4CCOCC4)cc3)sc3ncnc1c23 [Cpd 109, 5-(5-bromo-2-methyl-phenyl)-4-oxo-4,5-dihydro-3H-1-thia-3,5,6,8-tetraaza-acenaphthylene-2-carboxylic acid (4-morpholin-4-ylmethyl-phenyl)-amide]
21	–	100	161	–	O=C(Nc1ccc(CN2CCOCC2)cc1)c1sc2ncnc3c2c1NC(=O)N3c1ccc(Oc2ccc(F)cc2)cc1 [Cpd 110, 5-[4-(4-fluoro-phenoxy)-phenyl]-4-oxo-4,5-dihydro-3H-1-thia-3,5,6,8-tetraaza-acenaphthylene-2-carboxylic acid (4-morpholin-4-ylmethyl-phenyl)-amide]
-2	–	10	1700	–	Cc1ccc(N2C(=O)Nc3c(C(=O)NC4CCN(C)CC4)sc4ncnc2c34)cc1Br [Cpd 116, 5-(3-bromo-4-methyl-phenyl)-4-oxo-4,5-dihydro-3H-1-thia-3,5,6,8-tetraaza-acenaphthylene-2-carboxylic acid (1-methyl-piperidin-4-yl)-amide]
